Laboratory results published in patent US10017509B2, “Macrocylic pyrimidine derivatives” (Janssen Pharmaceutica NV, priority 2014, dated 2018).

Key:
EF2K [1] = molecular target: T1, EF2K (Homo sapiens, UniProt O00418); experiment: Biochemical EF2K lysate-based kinase assay (AlphaLISA p-eEF2 Thr56); conditions: pIC50 = -log IC50 (M), read-out: eEF2K_C_alphalisa pIC50 (converted)
T1 construct: host or cells: LN-229 cell lysate
T1 sequence (O00418 1-725): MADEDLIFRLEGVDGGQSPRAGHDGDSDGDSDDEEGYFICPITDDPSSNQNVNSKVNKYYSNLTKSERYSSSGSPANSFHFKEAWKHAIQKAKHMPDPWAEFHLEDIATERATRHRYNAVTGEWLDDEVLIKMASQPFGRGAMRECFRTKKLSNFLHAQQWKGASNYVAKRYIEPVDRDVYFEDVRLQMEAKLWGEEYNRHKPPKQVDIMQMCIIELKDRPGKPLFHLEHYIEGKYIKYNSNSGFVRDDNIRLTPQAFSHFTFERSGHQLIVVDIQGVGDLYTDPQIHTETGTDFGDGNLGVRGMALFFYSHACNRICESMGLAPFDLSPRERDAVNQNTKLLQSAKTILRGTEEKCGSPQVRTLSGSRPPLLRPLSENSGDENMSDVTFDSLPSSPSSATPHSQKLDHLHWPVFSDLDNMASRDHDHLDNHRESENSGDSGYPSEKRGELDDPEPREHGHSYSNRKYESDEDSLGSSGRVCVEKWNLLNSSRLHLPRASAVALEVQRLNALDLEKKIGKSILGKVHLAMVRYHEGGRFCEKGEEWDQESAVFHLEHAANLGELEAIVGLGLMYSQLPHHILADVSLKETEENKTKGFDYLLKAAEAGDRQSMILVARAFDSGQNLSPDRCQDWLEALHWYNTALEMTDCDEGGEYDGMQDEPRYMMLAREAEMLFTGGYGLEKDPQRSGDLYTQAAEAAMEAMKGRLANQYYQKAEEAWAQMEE
From the text: Biochemical EF2K Lysate-Based Kinase Assay
LN-229 cells were purchased from ATCC (CRL-2611); these are glioblastoma cells. Cell lysates from LN229 were used in this kinase assay to provide both the kinase and the substrate (EF2). The AlphaLISA p-eEF2 (Thr56) detection assay was developed using a sandwich assay format with two specific antibodies recognizing different epitopes of the target, including one antibody against the phosphorylation site of interest. One anti-eEF2 antibody was conjugated onto AlphaLISA Acceptor beads, while the second antibody was biotinylated and captured by streptavidin coated Donor beads.
Compound was mixed with LN-229 cell lysates in the presence of a kinase buffer (e.g. HEPES) at a pH of 6.6, containing 10 mM Mg^2+ (e.g. magnesium acetate) and 10 mM adenosine-tri-phosphate (ATP) and incubated at room temperature for 15 minutes. The kinase reaction was stopped with excess ethylenediaminetetraacetic acid disodium salt and the biotinylated-anti phospho eEF2 antibody (3 nM) was added for 1 hour. Then the anti-EF2 acceptor beads (10 μg/ml) as well as the streptavidin coated donor beads (20 μg/ml) were added for 1 hour, and the AlphaLISA signal was measured in an Envision instrument once, left overnight, and measured again for the final read.
(§1) (pIC50 is −log IC50 where IC50 represents the concentration expressed in M at which the test compound gives 50% inhibition)

EF2K [2] = molecular target: T1, EF2K; experiment: EF2K cell-based assay (P-EF2 AlphaLISA, 2-deoxyglucose stimulated MCF10A cells); conditions: 2.5 mM 2-deoxyglucose stimulated, P-EF2 Thr56, pIC50 = -log IC50 (M), read-out: eEF2K_C_PThr56 pIC50 (converted)
Protocol: In this assay, 2.5 mM 2-deoxyglucose was used to deplete intracellular ATP and activate 5′ adenosine monophosphate-activated protein kinase (AMPK) in the immortalized epithelial breast cell lines, MCF10A. MCF 10A cells were purchased from ATCC (CRL-10317).
MCF10A cells are seeded at a density of 1.25×10^5 Cells/ml at 100 μl/well in a 96-well plate and incubated for 24 hours (37° C., 5% CO2). Compound is added for 1 hour, and cell are stimulated with 2.5 mM of 2-deoxy-glucose for 4 hours. Medium is then removed, and cells are lysed in an ice-cold buffer M-PER (Thermo Scientific, 78501), containing protease and phosphatase inhibitors. P-EF2 levels are determined in these lysates using the P-EF2 AlphaLISA described above.
as §1

[3] = molecular target: Vps34 (PIK3C3 lipid kinase) (Homo sapiens, UniProt Q8NEB9); experiment: Biochemical Vps34 lipid kinase assay (ADP-Glo); conditions: for IC50: serial half-log dilution 10 μM to 0.3 nM, pIC50 = -log IC50 (M); for VPS34_1microM_% of cntrl / remaining activity at 1 µM: single dose 1 μM compound, residual activity compared to control (DMSO); for remaining activity at 1 µM: 1 h, read-out: VPS34_1microM_% of cntrl
Protocol: Biochemical Vps34 Lipid Kinase Assay
A non-radiometric kinase assay (ADP-Glo™ Assay, Promega, Madison, Wi, USA) was used for measuring the kinase activity of the PIK3C3 lipid kinase. All kinase assays were performed in 96-well half-area microtiter plates in a 25 μl reaction volume. The reaction cocktail was pipetted in 3 steps in the following order: • 10 μl of ATP solution (in assay buffer, see below) • 5 μl of test sample in 5% DMSO 10 μl of enzyme/substrate mixture
All lipid kinase assays contained 50 mM HEPES (4-(2-hydroxyethyl)-1-piperazineethanesulfonic acid)-NaOH, pH 7.5, 1 mM EGTA ((ethylene glycol tetraacetic acid), 100 mM NaCl, 0.03% CHAPS (3-[(3-Cholamidopropyl)dimethylammonio]-1-propanesulfonate), 2 mM DTT (Dithiothreitol), 20 μM ATP (corresponding to the apparent ATP-Km), kinase (7.6 nM) and substrate (50 μM). The assay for PIK3C3 additionally contained 3 mM MnCl2.
The reaction cocktails were incubated at 30° C. for 60 minutes. The reaction was stopped with 25 μl ADP-Go™ reagent per well. Plates were incubated for 40 minutes at room temperature, followed by addition of 50 μl kinase detection reagent per well and incubation for 60 minutes at room temperature. Signal was determined with a microplate luminescence reader (Victor, Perkin Elmer). The assay was either performed using a single dose of compound (1 μM final concentration in the assay reaction) with resulting data expressed as residual activity compared to control (DMSO), or using a serial (half-log) dilution of compounds starting at 10 μM and down to 0.3 nM (final concentrations in the assay) with data expressed as the pIC50.
as §1

Sequence of Vps34 (PIK3C3 lipid kinase) (Q8NEB9 whole entry, species assumed): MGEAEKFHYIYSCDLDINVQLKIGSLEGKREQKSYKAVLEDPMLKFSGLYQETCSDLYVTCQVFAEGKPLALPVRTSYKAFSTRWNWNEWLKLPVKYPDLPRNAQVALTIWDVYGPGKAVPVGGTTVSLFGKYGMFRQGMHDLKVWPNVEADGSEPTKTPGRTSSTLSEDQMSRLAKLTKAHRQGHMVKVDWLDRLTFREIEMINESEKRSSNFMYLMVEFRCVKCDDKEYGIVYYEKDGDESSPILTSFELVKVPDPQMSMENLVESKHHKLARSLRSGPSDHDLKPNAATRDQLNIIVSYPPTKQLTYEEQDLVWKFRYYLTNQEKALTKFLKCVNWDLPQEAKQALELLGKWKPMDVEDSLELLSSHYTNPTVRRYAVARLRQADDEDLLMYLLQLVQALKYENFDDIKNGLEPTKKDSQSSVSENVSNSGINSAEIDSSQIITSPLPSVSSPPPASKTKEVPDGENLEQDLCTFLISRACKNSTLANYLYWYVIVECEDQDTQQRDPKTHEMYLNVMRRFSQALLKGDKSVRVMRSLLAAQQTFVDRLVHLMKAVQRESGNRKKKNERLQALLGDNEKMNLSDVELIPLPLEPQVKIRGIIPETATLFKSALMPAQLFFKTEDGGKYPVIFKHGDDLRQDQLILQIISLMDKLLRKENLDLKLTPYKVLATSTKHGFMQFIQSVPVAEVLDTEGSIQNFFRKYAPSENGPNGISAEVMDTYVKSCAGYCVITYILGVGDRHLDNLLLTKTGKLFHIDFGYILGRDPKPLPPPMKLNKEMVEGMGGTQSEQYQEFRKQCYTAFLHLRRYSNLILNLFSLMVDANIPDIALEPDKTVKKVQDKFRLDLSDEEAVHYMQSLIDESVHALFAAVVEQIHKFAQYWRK

Row | Compound | IC50 (EF2K [1]) [M] | IC50 (EF2K [2]) [M] | IC50 [3] [M] | VPS34_1microM_% of cntrl [3] | remaining activity at 1 µM [3] [%]
1 | CN1CCCN(C)c2ccc(cn2)-c2ccnc(n2)Nc2cncc(c2)CN2CCN(CC2)CC1=O [Compound 33] | 6.61e-07 | 2.14e-05 | 7.41e-07 |  | 23.9
2 | CC1C(=O)N(C)CCCN(C)c2ccc(cn2)-c2ccnc(n2)Nc2cccc(c2)CN2CCN1CC2 (stereo not shown) [Compound 67] | 1.29e-07 | 3.89e-06 |  |  | 32.1
3 | CC1CN2CCN1Cc1cccc(c1)Nc1nccc(n1)-c1ccc(nc1)NCCCNC(=O)C2 (single isomer, unassigned) [Compound 62] | 7.76e-08 | 2.04e-06 |  | 166.89 % of cntrl | 
4 | CN1CCCN(C)c2ccc(cn2)-c2ccnc(n2)Nc2cccc(c2)CN2CCN(CC1=O)CC2COCCO (stereo not shown) [Compound 103] | 1.95e-07 | 1.86e-05 | 6.76e-07 |  | 28.3
5 | COC(=O)C1CN2CCN1Cc1cccc(c1)Nc1nccc(n1)-c1ccc(nc1)N(C)CCCN(C)C(=O)C2 (stereo not shown) [Compound 55] | 1.45e-07 | > 3.02e-05 | 8.91e-07 |  | 
6 | CN1CCCN(C)c2ccc(cn2)-c2ccnc(n2)Nc2cccc(c2)S(=O)(=O)N2CCN(CC2)CC1=O [Compound 27] | 2.95e-06 | > 3.02e-05 |  |  | 50.7
7 | CN1CCCN(C)c2ccc(cn2)-c2ccnc(n2)Nc2cccc(c2)CN2CCN(C)C(C2)C1=O (stereo not shown) [Compound 75] | > 3.02e-05 | > 3.02e-05 | 1.38e-06 |  | 22.9
8 | CC1CN2CCN1CC(=O)NCCCNc1ccc(cn1)-c1ccnc(n1)Nc1cccc(c1)C2 (stereo not shown) [Compound 49] | 3.89e-07 | 2.34e-06 |  |  | 37.4
9 | CN1CCCN(C)c2ccc(cn2)-c2ccnc(n2)Nc2cccc(c2)CN2CCN(CC1=O)CC2CO (single isomer, unassigned) [Compound 52] | 9.12e-07 | > 3.02e-05 | 3.98e-07 |  | 12.8
10 | CN1CCCN(C)c2ccc(cn2)-c2ccnc(n2)Nc2cccc(c2)CN2CCN(CC2)CC1=O [Compound 1] | 7.59e-08 | 2.95e-06 | 1.55e-06 |  | 
11 | CN1CCCN(C)c2ccc(cn2)-c2ccnc(n2)Nc2cccc(c2)CN2CCN(CC1=O)CC2COCCN1CCOCC1 (single isomer, unassigned) [Compound 100] | 6.46e-08 | 1.48e-05 |  |  | 43

More lines, in order of falling IC50 [3], values ahead:

Row | IC50 (EF2K [1]) [M] | IC50 (EF2K [2]) [M] | IC50 [3] [M] | VPS34_1microM_% of cntrl [3] | remaining activity at 1 µM [3] [%] | Compound
12 | 2.04e-06 | > 3.02e-05 | 3.63e-07 |  | 15.9 | O=C1CN2CCN(CC2)Cc2cc(ccc2C(=O)O)Nc2nccc(n2)-c2ccc(nc2)NCCCN1 [Compound 16]
13 | 1.35e-07 | ~8.13e-07 | 2.24e-07 |  | 17.7 | O=C1CN2CCN(CC2)Cc2cccc(c2)Nc2nccc(n2)-c2ccc(nc2)CN(CC2CCCO2)CCN1 (stereo not shown) [Compound 40]
14 | 9.33e-06 | > 3.02e-05 | 2.09e-07 | 15.81 % of cntrl |  | O=C1CN2CCN(CC2)Cc2cccc(c2)Nc2nccc(n2)-c2ccc(nc2)N2CC(O)CC2CCN1 (single isomer, unassigned) [Compound 90]
15 | 3.47e-07 | > 3.02e-05 | 2e-07 |  | 11.7 | O=C1CN2CCN(CC2)C(=O)c2cccc(c2)Nc2nccc(n2)-c2ccc(nc2)NCCCN1 [Compound 117]
16 | 1.74e-05 | > 3.02e-05 | 2e-07 |  | 5.67 | CN1CCCN(C)c2ccc(cn2)-c2ccnc(n2)Nc2cccc(c2)CCN2CCN(CC2)CC1=O [Compound 29]
17 | 7.94e-07 | 5.01e-06 | 1.7e-07 |  | 15.7 | O=C1CN2CCN(CC2)Cc2cccc(c2)Nc2nccc(n2)-c2ccc(nc2)NCCN1 [Compound 119]
18 | 1.38e-05 | > 3.02e-05 | 1.58e-07 |  | 15.1 | Cc1cc2cc(c1)Nc1nccc(n1)-c1ccc(nc1)NCCCNC(=O)CN1CCN(CC1)C2 [Compound 7]
19 | 1.2e-06 | > 3.02e-05 | 1.32e-07 |  | 7.48 | CN1CCCNC(=O)CN2CCN(CC2=O)Cc2cccc(c2)Nc2nccc(n2)-c2ccc1nc2 [Compound 78]
20 | ~6.46e-07 | 1.1e-05 | 1.23e-07 | 10.54 % of cntrl |  | O=C1CN2CCN(CC2)Cc2cccc(c2)Nc2nccc(n2)-c2ccc(nc2)NCC(O)CN1 (single isomer, unassigned) [Compound 24]
21 | 1.74e-07 | 1.45e-05 | 1.2e-07 |  | 7.29 | O=C1CN2CCN(CC2)Cc2cc(ccc2Cl)Nc2nccc(n2)-c2ccc(nc2)NCCCN1 [Compound 120]
22 | ~6.03e-06 | > 3.02e-05 | 9.77e-08 |  | 8.43 | O=C1CN2CCN(CC2)Cc2cc(Cl)cc(c2)Nc2nccc(n2)-c2ccc(nc2)NCCCN1 [Compound 9]
23 | 9.33e-09 | 1.32e-07 | 7.76e-08 |  |  | O=C1CN2CCN(CC2)Cc2cccc(c2)Nc2nccc(n2)-c2ccc(nc2)CN(CC2CC2)CCN1 [Compound 35]
24 | 2.88e-06 | > 3.02e-05 | 7.76e-08 |  | 6.36 | O=C1CN2CCN(CC2)Cc2cccc(c2)Nc2nccc(n2)-c2ccc(nc2)NCC(O)CN1 (single isomer, unassigned) [Compound 25]
25 | 1.29e-06 | > 1e-05 | 6.46e-08 |  | 4.78 | NS(=O)(=O)N1CCNC(=O)CN2CCN(CC2)Cc2cccc(c2)Nc2nccc(n2)-c2ccc(nc2)C1 [Compound 134]
26 | ~6.31e-06 | > 3.02e-05 | 4.68e-08 |  | 13.6 | O=C1CN2CCN(CC2)Cc2cccc(c2)Nc2nccc(n2)-c2ccc(nc2)N2CC(O)CC2CCN1 (single isomer, unassigned) [Compound 89]
27 | 6.03e-06 | > 3.02e-05 | 1.2e-08 |  | 7.38 | O=C1CC2CN(CCN2)Cc2cccc(c2)Nc2nccc(n2)-c2ccc(nc2)NCCCN1 (stereo not shown) [Compound 70]
